Laboratory results as given in publication PMC4521925, “17β-Hydroxysteroid Dehydrogenase Type 2 Inhibition: Discovery of Selective and Metabolically Stable Compounds Inhibiting Both the Human Enzyme and Its Murine Ortholog” (PLoS ONE, 2015).

How the values were obtained:
h17β-HSD2 = target: T1, h17β-HSD2 (Homo sapiens, UniProt P37059); assay: Inhibition of h17β-HSD2 in a cellular assay (MDA-MB-231); assay type: cell-based; settings: MDA-MB-231 cell line, substrate E2 [200 nM], 6 h; for inhibition at 0.25 µM: MDA-MB-231, 250 nM, read-out: % inh HSD2 at 250 nM; for inhibition at 1.25 µM: MDA-MB-231, 1250 nM, read-out: % inh HSD2 at 1250 nM
T1 sequence (P37059 1-387): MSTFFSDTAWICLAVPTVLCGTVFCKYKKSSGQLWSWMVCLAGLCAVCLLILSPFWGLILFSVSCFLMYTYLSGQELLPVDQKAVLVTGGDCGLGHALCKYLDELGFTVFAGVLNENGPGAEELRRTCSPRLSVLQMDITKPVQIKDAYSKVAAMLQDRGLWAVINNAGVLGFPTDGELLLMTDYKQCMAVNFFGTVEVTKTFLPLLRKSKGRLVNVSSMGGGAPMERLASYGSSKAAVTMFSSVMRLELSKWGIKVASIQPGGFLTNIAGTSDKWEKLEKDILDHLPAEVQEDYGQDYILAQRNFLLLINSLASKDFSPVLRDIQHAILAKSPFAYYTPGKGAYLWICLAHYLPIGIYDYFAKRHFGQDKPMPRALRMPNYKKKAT
Experimental: Cellular h17β-HSD2 inhibitory activity is measured using the breast cancer cell-line MDA-MB-231[32] (17β-HSD1 activity negligible). [^3H]-E2 (200 nM) is taken as substrate and is incubated with the inhibitor for 6 h at 37°C. After ether extraction, substrate and product are separated by HPLC and detected with a radioflow detector. Potency is evaluated as percentage of inhibition (inhibitor concentrations used: 1250 nM and 250 nM).

ERβ = ERβ (Homo sapiens, UniProt Q92731); assay: Estrogen receptor affinity in a cell-free assay (ERβ); assay type: binding; settings: 1000-fold excess relative to E2; recombinant human ERβ
ERβ, sequence (Q92731 whole entry): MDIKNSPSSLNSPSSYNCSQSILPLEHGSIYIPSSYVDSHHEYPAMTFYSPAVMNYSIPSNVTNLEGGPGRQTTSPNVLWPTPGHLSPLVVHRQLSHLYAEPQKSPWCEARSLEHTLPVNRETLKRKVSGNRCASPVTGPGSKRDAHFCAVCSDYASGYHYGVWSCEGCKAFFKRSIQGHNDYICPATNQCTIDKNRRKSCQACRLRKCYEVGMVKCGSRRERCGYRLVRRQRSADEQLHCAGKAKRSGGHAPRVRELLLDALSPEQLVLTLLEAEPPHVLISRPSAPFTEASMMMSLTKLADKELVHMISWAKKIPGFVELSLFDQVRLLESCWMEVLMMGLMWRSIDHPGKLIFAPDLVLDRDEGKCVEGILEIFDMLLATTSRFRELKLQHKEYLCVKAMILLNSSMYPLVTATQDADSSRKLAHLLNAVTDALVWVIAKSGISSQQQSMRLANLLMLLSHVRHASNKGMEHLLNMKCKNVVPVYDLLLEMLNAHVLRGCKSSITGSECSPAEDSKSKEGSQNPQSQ
Experimental: The binding affinity of selected compounds to ERα and ERβ was determined according to the recommendations of the US Environmental Protection Agency (EPA) by their Endocrine Disruptor Screening Program (EDSP)[24] using recombinant human proteins.
The potential inhibitors were dissolved in DMSO (5% final concentration). […] After incubation, ligand-receptor complexes were selectively bound to hydroxyapatite (83.5 g/LinTE-buffer). The bound complex was washed three times and resuspended in ethanol. For radiodetection, scintillator cocktail (Quickszint 212, Zinsser Analytic, Frankfurt) was added and samples were measured in a liquid scintillation counter (1450 LSC & Luminescence Counter, Perkin Elmer).
After the assay was established and validated, a modification was made to increase throughput.

h17β-HSD1 = target: T2, h17β-HSD1 (Homo sapiens, UniProt P14061); assay: Inhibition of h17β-HSD1 in cell-free assay; assay type: biochemical; settings: human placental cytosolic fraction, substrate E1 [500 nM], cofactor NADH [500 μM]
T2 construct: h17β-HSD1 was obtained after precipitation with ammonium sulfate from the cytosolic fraction; from tissue; host or cells: human placenta, cytosolic fraction
T2 sequence (P14061 1-328): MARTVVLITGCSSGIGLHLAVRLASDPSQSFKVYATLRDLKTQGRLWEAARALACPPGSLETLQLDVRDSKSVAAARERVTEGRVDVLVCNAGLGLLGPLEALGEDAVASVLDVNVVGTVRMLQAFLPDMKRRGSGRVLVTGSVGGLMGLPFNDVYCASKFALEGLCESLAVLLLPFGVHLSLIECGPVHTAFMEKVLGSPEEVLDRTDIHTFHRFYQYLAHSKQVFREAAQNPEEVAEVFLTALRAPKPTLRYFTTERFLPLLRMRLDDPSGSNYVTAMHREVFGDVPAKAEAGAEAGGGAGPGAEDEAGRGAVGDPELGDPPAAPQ
Method in brief: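 Cytosolic enzyme from human placenta, ammonium sulfate-precipitated, incubated with 500 μM NADH, test compound and unlabelled plus [3H]-E1 (500 nM final) for 10 min at 37°C. Steroids separated by HPLC with radiodetection to quantify conversion.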

m17β-HSD1 = target: T3, m17β-HSD1 (Mus musculus, UniProt P51656); assay: Inhibition of m17β-HSD1 in cell-free assay; assay type: biochemical; settings: recombinant m17β-HSD1, substrate E1 [500 nM], NADPH [500 μM]
T3 construct: host or cells: HEK 293 cells, transient transfection, 1000 g supernatant of the lysate
T3 sequence (P51656 1-344): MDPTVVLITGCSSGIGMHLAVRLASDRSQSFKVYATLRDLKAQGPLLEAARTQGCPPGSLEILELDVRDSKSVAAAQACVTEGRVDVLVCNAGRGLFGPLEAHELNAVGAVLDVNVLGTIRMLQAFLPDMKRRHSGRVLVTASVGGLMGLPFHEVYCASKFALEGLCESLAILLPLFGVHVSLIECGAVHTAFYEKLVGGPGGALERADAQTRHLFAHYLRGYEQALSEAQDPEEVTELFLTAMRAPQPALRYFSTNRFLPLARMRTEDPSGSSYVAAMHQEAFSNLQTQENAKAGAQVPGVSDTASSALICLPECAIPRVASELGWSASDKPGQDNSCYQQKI
Experimental: h17β-HSD2, h17β-HSD1, m17β-HSD2 and m17β-HSD1 cell-free assays were performed similarly, by incubating enzyme, tritiated substrate, cofactor and inhibitor, according to described procedures.
Recombinant m17β-HSD1 enzyme was produced by transfection of HEK 293 cells with a m17β-HSD1 expression plasmid (coding sequence of NM_010475 in pCMV6Entry vector, OriGene Technologies, Inc.) according to a described procedure. 48 hours after transfection cells were homogenized by sonication (3 x 10 s) in a buffer containing saccharose (40 mMTris, 250 mM saccharose, 5 mM EDTA, 7 mM DTT, 1 mM PMSF, pH 7,5). Cell lysate was centrifuged (1000 g, 15 min, 4°C) and 20% glycerol was added to the supernatant before aliquots were frozen and stored at -70°C.
The 17β-HSD1 inhibition assay was performed similarly to the h17β-HSD2 test. The human cytosolic enzyme was incubated with NADH [500 μM] while the mouse recombinant enzyme was reacted with NADPH [500 μM].Test compound and a mixture of unlabelled- and [^3H]-E1 (final concentration: 500 nM, 0.15 μCi) were added and mixed for 10 min at 37°C. Further treatment of the samples and HPLC separation was carried out as mentioned above for h17β-HSD2.

## COc1cccc(N(C)C(=O)c2ccc(-c3cccc(C)c3)cc2)c1 [Compound 6a, N-(3-methoxyphenyl)-N,3'-dimethyl-[1,1'-biphenyl]-4-carboxamide]
h17β-HSD2
  inhibition at 0.25 µM: 60%
  inhibition at 1.25 µM: ~90%
ERβ
  displacement of E2 from ERβ: ≤ 20%
h17β-HSD1
  IC50: 6.4 µM

## Cc1cccc(N(C)C(=O)c2ccc(-c3cccc(C)c3F)cc2)c1 [Compound 21a, 2'-Fluoro-N,3'-dimethyl-N-(m-tolyl)-[1,1'-biphenyl]-4-carboxamide]
m17β-HSD1
  inhibition of m17β-HSD1 at 1 μM: None of the tested compounds showed any inhibition
ERβ
  displacement of E2 from ERβ: ≤ 20%
h17β-HSD1
  IC50: 3.71 µM

## COc1cccc(N(C)C(=O)c2ccc(-c3ccc(C)c(C)c3)cc2)c1 [Compound 17a, N-(3-methoxyphenyl)-N,3',4'-trimethyl-[1,1'-biphenyl]-4-carboxamide]
m17β-HSD1
  inhibition of m17β-HSD1 at 1 μM: None of the tested compounds showed any inhibition
h17β-HSD2
  inhibition at 0.25 µM: 66%
  inhibition at 1.25 µM: ~90%
ERβ
  displacement of E2 from ERβ: ≤ 20%
h17β-HSD1
  IC50: 13.3 µM

## Cc1cccc(-c2ccc(C(=O)N(C)Cc3cccc(O)c3)cc2)c1F [Compound 25, 2'-Fluoro-N-(3-hydroxybenzyl)-N,3'-dimethyl-[1,1'-biphenyl]-4-carboxamide]
m17β-HSD1
  inhibition of m17β-HSD1 at 1 μM: None of the tested compounds showed any inhibition
h17β-HSD2
  inhibition at 0.25 µM: 67%
  inhibition at 1.25 µM: ~90%
ERβ
  displacement of E2 from ERβ: ≤ 20%
h17β-HSD1
  IC50: 31 µM
